In paper PMC3189958, “Salivary PYY: A Putative Bypass to Satiety” (PLoS ONE, 2011):
No end group written: not given here.

Columns and labels:
Y2 receptor = target: T1, Y2 receptor (Mus musculus, UniProt P97295); experiment: Y2R antagonist study: oral spray of BIIE0246/PYY3-36 mixture, 2 hr FI after 24 hr fast; format: in vivo
T1 construct: from tissue; host or cells: live mice; oral mucosa / tongue epithelium
T1 sequence (P97295 1-381): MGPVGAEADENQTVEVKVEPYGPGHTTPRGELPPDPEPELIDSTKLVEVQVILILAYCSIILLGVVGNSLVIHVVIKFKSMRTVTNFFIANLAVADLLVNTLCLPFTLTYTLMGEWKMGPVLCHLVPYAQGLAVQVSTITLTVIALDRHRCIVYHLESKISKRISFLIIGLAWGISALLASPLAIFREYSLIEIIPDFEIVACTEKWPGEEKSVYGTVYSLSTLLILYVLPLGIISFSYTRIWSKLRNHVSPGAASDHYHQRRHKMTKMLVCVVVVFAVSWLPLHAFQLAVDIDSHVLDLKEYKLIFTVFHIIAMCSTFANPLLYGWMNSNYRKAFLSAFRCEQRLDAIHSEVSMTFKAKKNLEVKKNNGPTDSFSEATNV
Description: Direct proof of PYY3-36/Y2R interaction was obtained by utilizing a selective Y2 receptor antagonist BIIE0246 [26]. The antagonist and PYY3-36 agonist (12 mg/100 g BW) were mixed at the 50∶1 molar ratio, respectively, and the mixture was used to treat fasted mice as described above (Fig. 6H).
(§1) One ml total volume sterile vials were obtained from Sephora. Murine PYY3-36 (Bachem) was diluted in sterile H2O. All 8–10 weeks old mice were individually housed. Mice were conditioned to the oral spray with vehicle after 24 hours fast on three separate occasions. Groups were randomized by FI and BW. […] The applied dose was estimated using calculated average volume ([…]) delivered per puff. Food was provided 10 min after the spray was applied and the amount consumed was measured at either 1 hr after the treatment, or at several time points (1, 2, 4, 6, 12, 18, and 24 hours). Taking into account the nocturnal feeding pattern, the experiment was conducted during the night with the first measurement taken at 2000 hrs. Each experiment was done at least 3 times in a crossover manner with 8 mice per group. For the Y2R antagonist study, BIIE0246 compound (Tocris Bioscience, Ellisville, MO) was dissolved in 100% EtOH (0.2 mM) and the stock solution was mixed with PYY3-36 aqueous solution at the 50∶1 molar ratio (BIIE0246/PYY3-36) with the final concentration of 2% EtOH in the mixture. […]

PYY KO mice = experiment: Oral spray satiation study, FI over 24 hours after single treatment, PYY KO mice; format: in vivo, mouse; details: n = 8/group
Description: To investigate the duration of action of orally applied PYY3-36 we conducted standard satiation studies in C57Bl/6J as well as in PYY KO mice measuring FI over 24 hours after single treatment.
as §1, with “mixture. Prior to this experiment, mice were conditioned to 2% EtOH spray on three separate occasions.” for “mixture.”

[1] = Concentration of PYY3-36 in plasma after oral spray or i.p. injection (RIA); format: in vivo, mouse; details: PYY KO mice, n = 10 per group
Description: To exclude potential interference with circulating background PYY in the plasma, we used PYY KO mice.
Blood was collected from facial vein puncture into EDTA-coated tubes (Capiject) containing protease inhibitors as described for saliva collection. Plasma samples were frozen at −80°C until analyzed.
PYY3-36 from saliva and plasma was measured by PYY3-36 RIA kit (Phoenix Pharmaceuticals). The identification of PYY3-36 from human saliva was performed by reverse-phase high performance liquid chromatography (RP-HPLC) followed by Matrix-Assisted Laser Desorption Ionization – Time of Flight (MALDI-TOF) mass spectrometry (MS). PYY3-36 synthetic peptide (Bachem) was used for calibration of all purification steps. Briefly, saliva was pre-purified using a Sep-Pak C18 cartridge (Waters) followed by purification on RP-HPLC uBondapak C18 column (Waters) as described. The PYY3-36-containing fraction was collected, air dried and reconstituted in 0.1% formic acid in 50% acetonitrile/water prior to analysis with MALDI-TOF as described, [40].

C57Bl/6J mice = experiment: Oral spray acute augmentation: food intake after 24 hours fasting; format: in vivo, mouse
Description: Figure 6 Oral PYY3-36 augmentation therapy. […] (B) Dose-response effect of PYY3-36 on 2 hr FI vs. control (n = 8 each group). (C) Effect of PYY3-36 oral spray on FI in C57Bl/6J mice measured at 1, 2, 6, 12, 18, and 24 hr post treatment (n = 8/group). (D) Effect of PYY3-36 oral spray on FI in PYY^-/- mice measured at 1, 2, 6, 12, 18, and 24 hr post treatment (n = 8/group). (E) Average 24-hr FI in DIO mice treated with daily PYY3-36 OS (18 mg/100 g). (F) Effect of daily PYY3-36 OS (18 mg/100 g) treatment on BW change in DIO C57Bl/6J mice (n = 9 per each group). (G) Concentration of PYY3-36 in plasma of PYY KO mice 10 min after PYY3-36 (18 mg/100 g BW), or control oral spray vs. PYY3-36 injected i.p. (6 mg/100 g BW) (n = 10 per group).
One ml total volume sterile vials were obtained from Sephora. Murine PYY3-36 (Bachem) was diluted in sterile H2O. All 8–10 weeks old mice were individually housed. Mice were conditioned to the oral spray with vehicle after 24 hours fast on three separate occasions. Groups were randomized by FI and BW. […] The applied dose was estimated using calculated average volume ([…]) delivered per puff. Food was provided 10 min after the spray was applied and the amount consumed was measured at either 1 hr after the treatment, or at several time points (1, 2, 4, 6, 12, 18, and 24 hours). Taking into account the nocturnal feeding pattern, the experiment was conducted during the night with the first measurement taken at 2000 hrs. Each experiment was done at least 3 times in a crossover manner with 8 mice per group. For the Y2R antagonist study, BIIE0246 compound (Tocris Bioscience, Ellisville, MO) was dissolved in 100% EtOH (0.2 mM) and the stock solution was mixed with PYY3-36 aqueous solution at the 50∶1 molar ratio (BIIE0246/PYY3-36) with the final concentration of 2% EtOH in the mixture. Prior to this experiment, mice were conditioned to 2% EtOH spray on three separate occasions. Wherever practical, the behavioral experiments were conducted in a blind fashion with the personnel uninformed about the treatment regimen.

[2] = PYY3-36 in saliva after i.p. injection (RIA); format: in vivo, mouse; details: male C57Bl/6J mice, 10 min post injection, n = 10 per group
Description: Some proteins enter saliva from salivary glands where they are expressed and secreted in an exocrine fashion via zymogen granules. Other peptides can enter saliva as a transudate from serum. To establish the source of salivary PYY3-36 we asked whether peptide circulating in a bloodstream can be transported into saliva. To this end, mice were injected intraperitoneally (i.p.) with increasing doses of murine synthetic PYY3-36 (Fig. 1F).
Salivation was stimulated as described earlier. Whole saliva was collected for 5 min from the oral cavity into Eppendorf tubes containing 5000 U Kallikrein inhibitor (Biomedicals) and 50 mM DPP-IV inhibitor (Linco Research). Saliva samples were frozen at −80°C until analyzed.
PYY3-36 from saliva and plasma was measured by PYY3-36 RIA kit (Phoenix Pharmaceuticals). The identification of PYY3-36 from human saliva was performed by reverse-phase high performance liquid chromatography (RP-HPLC) followed by Matrix-Assisted Laser Desorption Ionization – Time of Flight (MALDI-TOF) mass spectrometry (MS). PYY3-36 synthetic peptide (Bachem) was used for calibration of all purification steps. Briefly, saliva was pre-purified using a Sep-Pak C18 cartridge (Waters) followed by purification on RP-HPLC uBondapak C18 column (Waters) as described. […]

rodents = details: i.p., ref [16]; cited from earlier work
DIO C57Bl/6J mice = experiment: Repeated once-a-day oral spray in DIO mice fed high fat diet ad libitum (FI and BW); format: in vivo, mouse; details: daily oral spray 18 mg/100 g, n = 9 per group
Description: Figure 6 Oral PYY3-36 augmentation therapy. […] Experiments for each peptide were conducted separately and the results were integrated in one graph as fractions of average amount of FI consumed by the control group. […] (B) Dose-response effect of PYY3-36 on 2 hr FI vs. control (n = 8 each group). (C) Effect of PYY3-36 oral spray on FI in C57Bl/6J mice measured at 1, 2, 6, 12, 18, and 24 hr post treatment (n = 8/group). (D) Effect of PYY3-36 oral spray on FI in PYY^-/- mice measured at 1, 2, 6, 12, 18, and 24 hr post treatment (n = 8/group). (E) Average 24-hr FI in DIO mice treated with daily PYY3-36 OS (18 mg/100 g). (F) Effect of daily PYY3-36 OS (18 mg/100 g) treatment on BW change in DIO C57Bl/6J mice (n = 9 per each group). (G) Concentration of PYY3-36 in plasma of PYY KO mice 10 min after PYY3-36 (18 mg/100 g BW), or control oral spray vs. PYY3-36 injected i.p. (6 mg/100 g BW) (n = 10 per group). (H) Effect of Y2R specific antagonist BIIE0246 on anorexigenic action of PYY3-36 (n = 8 per each group) measured as 2 hr FI after 24 hr fast.*P<0.05, **P<0.01.
Because of the sustained 24-hr effect, we tested whether repeated once-a-day treatment would also affect the FI and BW accumulation over extended period of time when animals were fed high fat (HF) diet ad libitum.

N=C(N)NCCC[C@H](NC(=O)CC1(CC(=O)N2CCN(C3c4ccccc4NC(=O)c4ccccc43)CC2)CCCC1)C(=O)NCCn1c(=O)n(-c2ccccc2)n(-c2ccccc2)c1=O (stereo partly shown) [BIIE0246]
effect of antagonist alone on 2 hr FI (Y2 receptor; BIIE0246 alone, data not shown): no effect on 2 hr FI | effect of antagonist on the anorexigenic action of PYY3-36, 2 hr FI (Y2 receptor; BIIE0246 mixed with PYY3-36 (12 mg/100 g BW) at 50:1 molar ratio, 2% EtOH, after 24 hr fast, n = 8 per group): completely ablated the anorexigenic effect of PYY3-36

Peptide YY3-36 [PYY3-36]
response of FI over 24 hours to the low dose (PYY KO mice; PYY KO mice, low dose 3 mg/100 g BW): responded to the treatment in significant manner observed after 18 and 24 hrs post experiment | duration of anorexigenic response, FI over 24 hours after single treatment (PYY KO mice; PYY-/- mice, high dose 12 mg/100 g BW): significant until the next treatment 24 hrs later | PYY3-36 in plasma 10 min after i.p. injection ([1]; i.p. 6 mg/100g BW): significant increase in PYY3-36 found in plasma | PYY3-36 in plasma 10 min after oral spray ([1]; oral spray 18 mg/100 g BW): no detectable PYY3-36 in the plasma | duration of anorexigenic response, FI over 24 hours after single treatment (C57Bl/6J mice; C57Bl/6J mice, oral spray, high dose 12 mg/100 g BW, n = 8/group): significant until the next treatment 24 hrs later | response of FI over 24 hours to the low dose (C57Bl/6J mice; C57Bl/6J mice, oral spray, low dose 3 mg/100 g BW, n = 8/group): only PYY KO mice responded | one hour FI as % of control values at the maximum applied dose (C57Bl/6J mice; oral spray, dose-response, 12 mg/100 g, after 24 hr fast, n = 8 each group (legend Fig. 6B says 2 hr FI)): 81% | food consumed less than the control group, 1 hour FI (C57Bl/6J mice; oral spray, single puff, 3 mg/100 g BW, after 24 hours of fasting, food given 10 min after spray, average, n = 10 per group, C57Bl/6J mice): 12.3% | PYY3-36 in saliva after i.p. injection of increasing doses [2]: significant relationship between the injected dose and the concentration of the peptide detected in saliva | FI after intraperitoneal injection (rodents): dose-dependent reduction in FI | BW accumulation (DIO C57Bl/6J mice; DIO C57Bl/6J mice, HF diet ad libitum): retarded BW accumulation which became significantly on day 17th | average 24-hr FI of HF food (DIO C57Bl/6J mice; DIO mice): significantly less HF food

amylin (KCNTATCATQRLANFLVRSSNNLGPVLPPTNVGSNTY; ends and bridges not checked; cysteine pairing not given here; UniProt P12968 38-74, looked up) [endocrine peptide tested by oral spray application]
effect of oral spray application on FI (C57Bl/6J mice; oral spray, similar approach, data not shown): no change of FI

glucagon-like peptide-1 (HAEGTFTSDVSSYLEGQAAKEFIAWLVKGR; ends and bridges not checked; UniProt P55095 98-127, looked up) [GLP-1]
effect of oral spray on 1 hour FI (satiation) vs control oral spray (C57Bl/6J mice; oral spray after 24 hours fasting, GLP-1 3 mg/100 g BW, Exendin-4 10 mg/100 g BW, n = 10 each group): induced stronger satiation
